“And” between values parts separate entries of the source, which are not always exact repeats. Equal entries are not always repeated. “Also recorded” adds a separate entry of the source.
Experiments:
[1] = tested on: rhesus monkeys with spontaneous chronic kidney disease; assay: Effect on blood pressure (SBP, DBP, MBP, HR) after anesthesia, 8-week administration; format: in vivo, Macaca mulatta (Rhesus Macaque); settings: for SBP reduced by on average, compared with the baseline / DBP reduced by on average, compared with the baseline: after W8 administration
Excerpt: (§1) In the trial, animals were brought in three stages.
Route of administration: Oral administration.
After anesthesia, the animal was placed in a supine position. The left upper arm was shaved clean, and a suitable size cuff was tied according to the standard. The blood oxygen probe was clamped on the animal's finger or toe (except for the left hand), and the red light-sensitive surface was on the side of the finger pad. The blood pressure of the animal was continuously measured for 3 times in the automatic mode with an interval of 1 min. If the difference of DBP, SBP and MBP of blood pressure measured more than three times was not significant (the difference between the highest value and the lowest value was less than 15 mmHg), the measurement was completed.
Testing equipment: GE B40i electrophysiological monitor.
See Table 16 for the effects of administration of each administration group on blood pressure. The blood pressure test of primates required anesthesia, so it was necessary to control the variability of heart rate at various time points to make statistics.

[2] = tested on: rhesus monkeys with spontaneous chronic kidney disease; assay: Effect on heart function, cardiac Doppler ultrasound, 8-week administration
Procedure: as §1
This was performed once before administration and once after administration. UACR=MALB/Cr—U. • Blood pressure: the blood pressure was checked after anesthesia, including systolic blood pressure (SBP), diastolic blood pressure (DBP), mean blood pressure (MBP) and heart rate (HR). This was performed once before administration and once at weeks 4 and 8 respectively after administration. • Cardiac GE Doppler ultrasound: historical cardiac ultrasonography once within 1 year (selected animals), once before administration (within 30 days (D-30) of the baseline period), and once at week 8 after administration.
Anesthesia method: 15 mg/kg of ketamine hydrochloride was used for intramuscular injection anesthesia. According to the animal anesthesia state, the supplemental anesthesia will be performed after judgment by veterinarian. Each supplemental anesthesia dose was ½ of the initial dose.
Detection method: The animal was placed in the left decubitus position, and the 6S-RS probe (frequency 2.7-8.0 MHz) was used for image acquisition.
Analysis method: After the image was collected and saved, the supporting analysis workstation EchoPAC Software was used to repeatedly detect various indicators of systolic and diastolic functions in 3 consecutive cardiac cycles.
Testing indicators and ultrasonic technology: see Table 9 below.
Testing equipment: GE Vivid S5 color Doppler ultrasound diagnostic system.

[3] = 2 mg/kg qd (n = 5), 4 weeks, mean
[4] = 2 mg/kg qd (n = 5), 8 weeks, mean
[5] = 2 mg/kg qd (n=5), P<0.01 vs placebo
[6] = 5 mg/kg qd (n = 6), 8 weeks, mean
[7] = 5 mg/kg qd (n=6), p<0.01 vs placebo

COC(=O)NCCCn1nc([C@@H](C)N(C(=O)[C@H]2CNCCO2)C2CC2)c2ccc(C)nc21.O=C(O)C[C@H](O)C(=O)O [malate of compound of Formula I]
SBP reduced by on average, compared with the baseline ([1]; 1 mg/kg qd (n=5), p<0.05 vs placebo): 11±4 mmHg | DBP ([1]; 2 mg/kg qd (n = 5), 4 weeks): 55 mmHg and 83 mmHg and 66 mmHg | SBP ([1]; 2 mg/kg qd (n = 5), 4 weeks): 110 mmHg and 163 mmHg and 138 mmHg | DBP [1, 3]: 71 ± 11 mmHg | SBP [1, 3]: 140 ± 20 mmHg | DBP ([1]; 2 mg/kg qd (n = 5), 8 weeks): 52 mmHg and 70 mmHg and 62 mmHg and 73 mmHg | SBP ([1]; 2 mg/kg qd (n = 5), 8 weeks): 102 mmHg and 160 mmHg and 121 mmHg and 133 mmHg | DBP [1, 4]: 64 ± 8 mmHg | SBP [1, 4]: 128 ± 21 mmHg | DBP ([1]; 2 mg/kg qd (n = 5), Baseline): 58 mmHg and 56 mmHg and 78 mmHg and 83 mmHg and 74 mmHg | DBP ([1]; 2 mg/kg qd (n = 5), Baseline, mean): 70 ± 12 mmHg | SBP ([1]; 2 mg/kg qd (n = 5), Baseline, single animals and Mean ± SD): 126 mmHg and 111 mmHg and 184 mmHg and 143 mmHg and 137 mmHg | SBP ([1]; 2 mg/kg qd (n = 5), Baseline, single animals and Mean ± SD, mean): 140 ± 27 mmHg | DBP reduced by on average, compared with the baseline [1, 5]: 9±8 mmHg | SBP reduced by on average, compared with the baseline [1, 5]: 19±9 mmHg | SBP ([1]; 5 mg/kg qd (n = 6), 4 weeks): 136 mmHg and 124 mmHg and 159 mmHg and 144 mmHg and 139 mmHg | SBP ([1]; 5 mg/kg qd (n = 6), 4 weeks, mean): 138 ± 12 mmHg | DBP ([1]; 5 mg/kg qd (n = 6), 8 weeks): 57 mmHg and 97 mmHg and 60 mmHg and 59 mmHg | SBP ([1]; 5 mg/kg qd (n = 6), 8 weeks): 114 mmHg and 161 mmHg and 121 mmHg and 128 mmHg | DBP [1, 6]: 66 ± 15 mmHg | SBP [1, 6]: 129 ± 16 mmHg | DBP ([1]; 5 mg/kg qd (n = 6), Baseline): 63 mmHg and 105 mmHg and 74 mmHg and 97 mmHg and 70 mmHg and 71 mmHg | DBP ([1]; 5 mg/kg qd (n = 6), Baseline, mean): 80 ± 17 mmHg | SBP ([1]; 5 mg/kg qd (n = 6), Baseline, single animals and Mean ± SD): 132 mmHg and 159 mmHg and 127 mmHg and 180 mmHg and 154 mmHg and 149 mmHg | SBP ([1]; 5 mg/kg qd (n = 6), Baseline, single animals and Mean ± SD, mean): 150 ± 19 mmHg | DBP reduced by on average, compared with the baseline [1, 7]: 10±7 mmHg | SBP reduced by on average, compared with the baseline [1, 7]: 21±8 mmHg | activity of lowering blood pressure ([1]; 1-5 mg/kg qd for 8 weeks): showed the activity of lowering the blood pressure; also recorded: the activity of lowering blood pressure was shown | E/Ea ([2]; 1 mg/kg (n = 5), 8 weeks): 10.68 and 11.36 and 8.16 and 8.95 and 10.64 | Ea ([2]; 1 mg/kg (n = 5), 8 weeks): 5.35 cm/s and 5.65 cm/s and 6.99 cm/s and 5.37 cm/s and 5.06 cm/s | LVEF ([2]; 1 mg/kg (n = 5), 8 weeks): 63.95% and 55.81% and 54.03% and 61.01% and 49.37% | E/Ea ([2]; 1 mg/kg (n = 5), Baseline): 10.50 and 9.53 and 9.22 and 8.68 and 10.36 | Ea ([2]; 1 mg/kg (n = 5), Baseline): 5.90 cm/s and 6.31 cm/s and 4.81 cm/s and 5.18 cm/s and 6.37 cm/s | LVEF ([2]; 1 mg/kg (n = 5), Baseline, single animals and Mean ± SD): 65.25% and 55.89% and 54.86% and 69.87% and 47.92% | E/Ea ([2]; 2 mg/kg (n = 5), 8 weeks): 10.63 and 6.35 and 7.84 and 9.88 and 6.22 | Ea ([2]; 2 mg/kg (n = 5), 8 weeks): 5.00 cm/s and 6.66 cm/s and 8.01 cm/s and 5.91 cm/s and 6.82 cm/s | LVEF ([2]; 2 mg/kg (n = 5), 8 weeks): 58.54% and 67.80% and 57.13% and 58.03% and 62.85% | LVEF ([2]; 2 mg/kg (n = 5), Baseline, single animals and Mean ± SD): 54.41% and 70.41% and 57.45% and 57.90% and 62.76% | E/Ea ([2]; 5 mg/kg (n = 6), 8 weeks): 7.38 and 9.25 and 8.22 and 6.12 and 11.07 | Ea ([2]; 5 mg/kg (n = 6), 8 weeks): 8.53 cm/s and 8.26 cm/s and 6.47 cm/s and 8.40 cm/s and 6.62 cm/s | LVEF ([2]; 5 mg/kg (n = 6), 8 weeks): 62.99% and 45.89% and 73.88% and 54.16% and 55.90% | LVEF ([2]; 5 mg/kg (n = 6), Baseline, single animals and Mean ± SD): 63.71% and 42.11% and 71.95% and 49.98% and 59.46% | LVEF % compared with the baseline ([2]; 5 mg/kg, 8-week administration, 2 animals (No. 5073 and No. 287) with low ejection fraction): increased LVEF % | adverse reaction in the systolic and diastolic function (echocardiography) ([2]; rhesus monkey, in vivo): no obvious adverse reaction

From patent US20230330093A1, “APPLICATION OF NITROGEN-CONTAINING SATURATED HETEROCYCLIC COMPOUND” (SHANGHAI PHARMACEUTICALS HOLDING CO., LTD., priority 2020, published 2023)
